Measurements reported in paper PMC10458859, “Stem Cell Bioengineering with Bioportides: Inhibition of Planarian Head Regeneration with Peptide Mimetics of Eyes Absent Proteins” (Pharmaceutics, 2023).
[ ]: non-standard residue; d: D form. Aib = CC(C)(N)C(=O)O

Experiments:
U251 cells = assay: Quantitative peptide uptake, U251; format: cell-based; settings: 1 h, 37 °C; for rank order of uptake efficacy: U251, TAMRA-labelled peptides 1, 2.5, 5 μM, lysate fluorescence 544/590 nm, two experiments in triplicate
Protocol: (§1) U373MG and U251 cells were maintained as above and then transferred to 6-well plates and grown to 80% confluence. Cells were washed and maintained in phenol red-free DMEM and subsequently treated with TAMRA-conjugated Djeya1 analogues at final concentrations of 1 μM, 2.5 μM, and 5 μM for 1 h in culture conditions as above. Cells were washed four times, detached with 300 μL of 1% (w/v) trypsin (without phenol red) at 37 °C, collected by centrifugation, and lysed in 300 μL 0.1 M NaOH for 2 h on ice. A total of 250 μL of each sample cell lysate was transferred to a black 96-well plate and analysed using a Thermo Fischer Scientific (Loughborough, UK) Fluoroskan Ascent FL fluorescence spectrophotometer (λAbs 544 nm/λEm 590 nm).

U373MG cells = assay: Quantitative peptide uptake, U373MG; format: cell-based; settings: TAMRA-labelled peptides 1, 2.5, 5 μM, 1 h, 37 °C, lysate fluorescence 544/590 nm, two experiments in triplicate
Protocol: as §1

[1] = Circular dichroism secondary structure analysis; format: physicochemical; settings: CD; for difference in percentage α-helicity in the presence of lipid membranes: DMPC and DMPS vesicles, lipid:peptide 100 to 1
Protocol: Secondary structure analyses of Djeya1 peptides were performed on a Jasco J-815 CD spectrometer (Jasco Ltd., Heckmondwike, UK). Peptides (0.01 mg mL^−^1) were dissolved in either 1 × phosphate buffered saline (PBS) at pH 7.4 or in a 2,2,2-tetrafluoroethanol (TFE) and 1 × PBS mixture (50.0% v/v). All buffers were prepared using ultra-pure water (resistivity 18 MΩ cm), PBS and TFE (Scientific Laboratory Supplies Ltd., Nottingham, UK). CD experiments were also performed at peptide:lipid ratios of 1:100, whilst 1,2-dimyristoyl-sn-glycero-3-phosphatidylcholine (DMPC) and 1,2-dimyristoyl-sn-glycero-3-phosphatidylserine (DMPS) (5 mg mL^−^1) (Avanti Polar Lipids, Alabaster, AL, USA) were dissolved separately in chloroform (HPLC grade, VWR International Ltd Lutterworth, UK) and dried under N2 gas. The lipid film was rehydrated using 1 × PBS, pH 7.5 for 1 h or until the solution was no longer turbid. The solution then underwent 5 cycles of freeze thaw before the lipid/peptide samples were prepared by the addition of peptide stock solution (final concentration 0.01 mg mL^−^1). Far UV CD spectra (180 nm to 260 nm) were recorded at 20 °C using 0.5 nm intervals, a bandwidth of 1 nm, a scan speed of 50 nm min^−1 and a 10 mm path-length cell. Ten accumulations were selected to average a single spectrum. Samples without peptide were prepared for background spectral subtraction. Data, baseline-subtracted and averaged CD, were analyzed using the Dichroweb server CDSSTR and SELCON3 reference dataset 3 [23, 24, 25]. To generate percentage structure averages, these analyses were repeated four times.

[2] = test system: decapitated S. mediterranea; assay: Anterior pole regeneration and eye development assay; format: in vivo, Schmidtea mediterranea; settings: for influence upon planarian head regeneration: 25 μM exogenous application to decapitated S. mediterranea, monitored over 8 days; for response to light: 25 μM in PAM after amputation, day 8; for response to light / regeneration of the anterior pole, including the eye spots: re-treated day 4; for regeneration of the anterior pole, including the eye spots: 25 μM in PAM immediately after transverse amputation, observed day 8, compared to PAM alone; for animals that achieved full regeneration / animals that had commenced the development of photoreceptors within the unpigmented blastema: n = 9; for animals that had commenced the development of photoreceptors within the unpigmented blastema: 25 μM, day 9 post amputation
Protocol: Adult planaria, 4–6 mm in length, and selected for experimentation were starved 5 days prior to amputation. Transverse amputation of planarian heads, post-auricle and pre-pharynx, induced blastema formation in the trunk section, leading to eye regeneration and head remodeling.
Post amputation, planaria were immediately treated with exogenously added Djeya1 analogues in 35 mm diameter × 10 mm depth culture dishes (VWR International Ltd., Lutterworth, UK) to a final volume of 4 mL PAM and maintained at 20 °C. PAM, containing Djeya1 analogues, was replenished 4 days post amputation. […]

[3] = 50% (v/v) TFE/PBS pH 7.4, peptide 0.01 mg mL-1, 20 °C
[4] = 50% (v/v) TFE/PBS pH 7.4, peptide 0.01 mg mL-1, 20 °C, Dichroweb, analyses repeated four times
[5] = DMPC vesicles, lipid:peptide 100 to 1, PBS, peptide 0.01 mg mL-1, 20 °C
[6] = DMPS vesicles, lipid:peptide 100 to 1, PBS, peptide 0.01 mg mL-1, 20 °C
[7] = PBS pH 7.4, peptide 0.01 mg mL-1, 20 °C, Dichroweb CDSSTR/SELCON3, analyses repeated four times
[8] = PBS pH 7.4, peptide 0.01 mg mL-1, 20 °C, Dichroweb, analyses repeated four times
[9] = 25 μM treatment, 30 days post amputation, in PAM

| Substance | rank order of uptake efficacy (U251 cells) | rank order of uptake efficacy (U373MG cells) | Unordered [1, 3] | ß-Strand [1, 3] | ß-Turns [1, 3] | α-helix [1, 4] | difference in percentage α-helicity in the presence of lipid membranes [1] | Unordered [1, 5] | ß-Strand [1, 5] | ß-Turns [1, 5] | α-helix [1, 5] | Unordered [1, 6] | ß-Strand [1, 6] | ß-Turns [1, 6] | α-helix [1, 6] | α-helix [1, 7] | Unordered [1, 8] | ß-Strand [1, 8] | ß-Turns [1, 8] | influence upon planarian head regeneration [2] | other results |
| --- | --- | --- | --- | --- | --- | --- | --- | --- | --- | --- | --- | --- | --- | --- | --- | --- | --- | --- | --- | --- | --- |
| H-RKLAFRYRRIKE[Aib]YNSYR-NH2 (SMILES CC[C@H](C)[C@H](NC(=O)[C@H](CCCNC(=N)N)NC(=O)[C@H](CCCNC(=N)N)NC(=O)[C@H](Cc1ccc(O)cc1)NC(=O)[C@H](CCCNC(=N)N)NC(=O)[C@H](Cc1ccccc1)NC(=O)[C@H](C)NC(=O)[C@H](CC(C)C)NC(=O)[C@H](CCCCN)NC(=O)[C@@H](N)CCCNC(=N)N)C(=O)N[C@@H](CCCCN)C(=O)N[C@@H](CCC(=O)O)C(=O)NC(C)(C)C(=O)N[C@@H](Cc1ccc(O)cc1)C(=O)N[C@@H](CC(N)=O)C(=O)N[C@@H](CO)C(=O)N[C@@H](Cc1ccc(O)cc1)C(=O)N[C@@H](CCCNC(=N)N)C(N)=O) [[Aib^13]Djeya1, Aib-substituted Djeya1 analogue, position 13; bioportide] | [Aib^13]Djeya1 > [Aib^16]Djeya1 > [Aib^10]Djeya1 | [Aib^16]Djeya1 = [Aib^10]Djeya1 > [Aib^13]Djeya1 | 22.33 ± 1.50% | 31.00 ± 2.08% | 7.33 ± 0.05% | 40.00 ± 2.64% | No difference | 22.00 ± 0.71% | 30.00 ± 0.71% | 8.00 ± 0.71% | 42.00 ± 0.71% | 21.00 ± 0.71% | 30.00 ± 0.71% | 7.00 ± 0.71% | 42.00 ± 0.00% | 40.67 ± 1.52% | 22.33 ± 1.52% | 30.00 ± 1.00% | 7.00 ± 0.00% | delay head regeneration | uptake efficacy into U251 cells compared with U373MG cells (U251 cells; TAMRA-labelled peptide): increased uptake efficacy; effect of 50% TFE/PBS on α-helical structure ([1]; 50% TFE/PBS (v/v) compared with PBS): did not enhance; response to light [2]: unresponsive to light; regeneration of the anterior pole, including the eye spots [2]: absent; animals that remained unregenerated and in stasis [2, 9]: 33%; animals that achieved full regeneration [2, 9]: 67%; animals that had commenced the development of photoreceptors within the unpigmented blastema [2]: 67% |
| H-RKLAFRYRR[Aib]KELYNSYR-NH2 (SMILES CC(C)C[C@H](NC(=O)[C@H](CCCCN)NC(=O)[C@@H](N)CCCNC(=N)N)C(=O)N[C@@H](C)C(=O)N[C@@H](Cc1ccccc1)C(=O)N[C@@H](CCCNC(=N)N)C(=O)N[C@@H](Cc1ccc(O)cc1)C(=O)N[C@@H](CCCNC(=N)N)C(=O)N[C@@H](CCCNC(=N)N)C(=O)NC(C)(C)C(=O)N[C@@H](CCCCN)C(=O)N[C@@H](CCC(=O)O)C(=O)N[C@@H](CC(C)C)C(=O)N[C@@H](Cc1ccc(O)cc1)C(=O)N[C@@H](CC(N)=O)C(=O)N[C@@H](CO)C(=O)N[C@@H](Cc1ccc(O)cc1)C(=O)N[C@@H](CCCNC(=N)N)C(N)=O) [[Aib^10]Djeya1, Aib-substituted Djeya1 analogue, position 10] | [Aib^13]Djeya1 > [Aib^16]Djeya1 > [Aib^10]Djeya1 | [Aib^16]Djeya1 = [Aib^10]Djeya1 > [Aib^13]Djeya1 | 20.00 ± 0.00% | 21.00 ± 0.02% | 7.50 ± 0.71% | 51.50 ± 0.07% | – | 22.00 ± 1.41% | – | 7.00 ± 1.41% | 45.00 ± 1.58% | 16.00 ± 0.00% | 15.00 ± 0.00% | 5.00 ± 0.00% | 63.00 ± 2.82% | 41.33 ± 1.15% | 20.67 ± 0.58% | 31.33 ± 0.58% | 7.00 ± 0.00% | inactive | – |
| H-RKLAFRYRRIKELYNSYR-NH2 [Djeya1, octadecapeptide CPP mimicking the α5 helix of the Eya domain of eyes absent proteins] | – | – | 20.00 ± 1.41% | 27.55 ± 3.53% | 7.00 ± 0.00% | 45.50 ± 4.94% | – | 22.00 ± 0.00% | – | 8.00 ± 0.0% | 44.00 ± 1.53% | 20.00 ± 0.00% | 26.00 ± 1.28% | 8.00 ± 0.00% | 47.00 ± 1.24% | 43.00 ± 1.73% | 20.00 ± 1.73% | 30.33 ± 0.58% | 6.67 ± 0.58% | inactive | – |
| H-RKLAFRYRRIKELYN[Aib]YR-NH2 (SMILES CC[C@H](C)[C@H](NC(=O)[C@H](CCCNC(=N)N)NC(=O)[C@H](CCCNC(=N)N)NC(=O)[C@H](Cc1ccc(O)cc1)NC(=O)[C@H](CCCNC(=N)N)NC(=O)[C@H](Cc1ccccc1)NC(=O)[C@H](C)NC(=O)[C@H](CC(C)C)NC(=O)[C@H](CCCCN)NC(=O)[C@@H](N)CCCNC(=N)N)C(=O)N[C@@H](CCCCN)C(=O)N[C@@H](CCC(=O)O)C(=O)N[C@@H](CC(C)C)C(=O)N[C@@H](Cc1ccc(O)cc1)C(=O)N[C@@H](CC(N)=O)C(=O)NC(C)(C)C(=O)N[C@@H](Cc1ccc(O)cc1)C(=O)N[C@@H](CCCNC(=N)N)C(N)=O) [[Aib^16]Djeya1, Aib-substituted Djeya1 analogue, position 16; bioportide] | [Aib^13]Djeya1 > [Aib^16]Djeya1 > [Aib^10]Djeya1 | [Aib^16]Djeya1 = [Aib^10]Djeya1 > [Aib^13]Djeya1 | 19.50 ± 0.71% | 27.50 ± 0.71% | 7.00 ± 0.00% | 46.00 ± 1.41% | No difference | 22.00 ± 0.71% | 30.00 ± 0.71% | 7.00 ± 0.71% | 42.00 ± 0.71% | 22.00 ± 0.71% | 30.00 ± 0.71% | 8.00 ± 0.71% | 42.00 ± 0.00% | 39.67 ± 4.04% | 21.00 ± 1.00% | 31.67 ± 2.87% | 7.33 ± 0.58% | delay head regeneration | response to light [2]: unresponsive to light; regeneration of the anterior pole, including the eye spots [2]: absent; animals that achieved full regeneration [2, 9]: all; animals that had commenced the development of photoreceptors within the unpigmented blastema [2]: 67% |
